Experimental data from patent publication US20240400555A1 (Initial Therapeutics, Inc., priority 2023, published 2024).
pIC50: −log10 of the molar value.

tested on: MV-4-11 cells; assay: Cell Viability Assay in MV-4-11 Cells; assay type: cell-based; conditions: Homo sapiens, MV4-11, 72 h, MV-4-11 cells, 72 h, Cell-Titer Glo; read-out: IC50
Description: MV-4-11 cells (ATCC) were seeded into sterile 96-well flat clear bottom white polystyrene TC-treated microplates (Corning) at 7,000 cells/well in 150 μL complete growth medium (Iscove's Modified Dulbecco's Medium (IMDM) (Gibco), 10% Heat Inactivated Fetal Bovine Serum (HyClone), 1% Penicillin-Streptomycin-L-Glutamine (HyClone), 1% GlutaMAX (Gibco)). […] After 72 h incubation, plates were removed from incubators and allowed to equilibrate to room temperature (˜10 min) before adding 50 μL per well Cell-Titer Glo reagent (Promega) using a WellJet (Integra Biosciences) dispenser. Plates were then incubated at room temperature for 2-20 min prior to measurement of luminescence on an Envision (Perkin Elmer) plate reader. Data were normalized to DMSO (100% viability) and analyzed using a non-linear four-parameter curve fit.

SMILES | pIC50
Cc1nsc(-c2ccc(C(=O)N(c3nccc4cc(F)cc(C)c34)[C@@H]3CCCNC3)cc2)n1 [Example 774, (R)—N-(6-fluoro-8-methylisoquinolin-1-yl)-4-(3-methyl-1,2,4-thiadiazol-5-yl)-N-(piperidin-3-yl)benzamide] | 5.82
CC(=O)Nc1ccc(-c2cc3c(N(C(=O)c4ccc(-c5cn(C)nn5)cc4F)[C@@H]4CCCNC4)nccc3s2)cc1 [Example 547, (R)—N-(2-(4-acetamidophenyl)thieno[3,2-c]pyridin-4-yl)-2-fluoro-4-(1-methyl-1H-1,2,3-triazol-4-yl)-N-(piperidin-3-yl)benzamide] | 6.32
N#Cc1cc(-c2cc3c(N(C(=O)c4ccc(-n5nnc6cccnc65)cc4F)[C@@H]4CCCNC4)nccc3s2)ccn1 [Example 386, N-[2-(2-cyano-4-pyridyl)thieno[3,2-c]pyridin-4-yl]-2-fluoro-N-[(3R)-3-piperidyl]-4-(triazolo[4,5-b]pyridin-3-yl)benzamide] | 6.48
Cc1cccc2ccnc(N(C(=O)c3cccc(C#CCCC(=O)NCc4ccncc4)c3)[C@@H]3CCCNC3)c12 [Example 517, (R)—N-(8-methylisoquinolin-1-yl)-3-(5-oxo-5-((pyridin-4-ylmethyl)amino)pent-1-yn-1-yl)-N-(piperidin-3-yl)benzamide] | 5.14
Cc1cccc2ccnc(N(C(=O)N3CCC[C@@H](c4ccc(-n5cc6cccc(C(N)=O)c6n5)cc4)C3)[C@@H]3CCCNC3)c12 [Example 339, 2-(4-((S)-1-((8-methylisoquinolin-1-yl)((R)-piperidin-3-yl)carbamoyl)piperidin-3-yl)phenyl)-2H-indazole-7-carboxamide] | 6.26
Cc1cccc2ccnc(N(C(=O)c3ccc(Nc4nccc(CN5CCNCC5)n4)cc3F)[C@@H]3CCCNC3)c12 [Example 686, (R)-2-fluoro-N-(8-methylisoquinolin-1-yl)-4-((4-(piperazin-1-ylmethyl)pyrimidin-2-yl)amino)-N-(piperidin-3-yl)benzamide] | 6.34
CNC(=O)c1ccc(-c2cc3c(N(C(=O)c4ccc(-c5cn(C)nn5)cc4F)[C@@H]4CCCNC4)nccc3s2)cc1 [Example 521, (R)-2-fluoro-4-(1-methyl-1H-1,2,3-triazol-4-yl)-N-(2-(4-(methylcarbamoyl)phenyl)thieno[3,2-c]pyridin-4-yl)-N-(piperidin-3-yl)benzamide] | 6.12

Molecules with a higher pIC50, results first:

pIC50 | SMILES
6.68 | CCc1nnc(-c2ccc(C(=O)N(c3nccc4cc(Cl)cc(C)c34)[C@@H]3CCCNC3)c(F)c2)s1 [Example 700, (R)—N-(6-chloro-8-methylisoquinolin-1-yl)-4-(5-ethyl-1,3,4-thiadiazol-2-yl)-2-fluoro-N-(piperidin-3-yl)benzamide]
6.70 | Cc1cccc2ccnc(N(C(=O)c3ccc(Nc4nccc(C5CCC(O)CC5)n4)cc3F)[C@@H]3CCCNC3)c12 (stereo partly drawn) [Example 679, (R)-2-fluoro-4-((4-(4-hydroxycyclohexyl)pyrimidin-2-yl)amino)-N-(8-methylisoquinolin-1-yl)-N-(piperidin-3-yl)benzamide]
6.82 | [2H]C([2H])([2H])c1nnc(-c2ccc(C(=O)N(c3nccc4cccc(C)c34)[C@@H]3CCCNC3)c(F)c2)s1 [Example 899, 2-fluoro-N-(8-methyl-1-isoquinolyl)-N-[(3R)-3-piperidyl]-4-[5-(trideuteriomethyl)-1,3,4-thiadiazol-2-yl]benzamide]
6.92 | Cc1cccc2ccnc(N(C(=O)c3ccc(Nc4nccc(NCc5nccs5)n4)cc3F)[C@@H]3CCCNC3)c12 [Example 693, (R)-2-fluoro-N-(8-methylisoquinolin-1-yl)-N-(piperidin-3-yl)-4-((4-((thiazol-2-ylmethyl)amino)pyrimidin-2-yl)amino)benzamide]
7.26 | COc1cc(C)c2c(N(C(=O)c3ccc(-c4cn(C)nn4)cc3)[C@@H]3CCCNC3)nccc2c1 [Example 858, N-(6-methoxy-8-methyl-1-isoquinolyl)-4-(1-methyltriazol-4-yl)-N-[(3R)-3-piperidyl]benzamide]
